Laboratory results as given in patent publication US20190105340A1, “METHODS AND COMPOSITIONS FOR TARGETING VASCULAR MIMICRY” (New York Genome Center, Inc., priority 2017, published 2019).
Entries after “also recorded” stand apart in the source; their conditions may differ.

Experiments:
[1] = cancer patients; cited from earlier work
[2] = system: 4T1-T^VM cells; assay: in vitro VM tube assay on Matrigel; assay type: cell-based, mouse; conditions: 4T1-T^VM cells treated directly, plated on Matrigel
Description: FIG. 1G are gel photographs showing the results of an in vitro Matrigel assay for VM. Only VM clones 4T1-E and 4T1-T can form tube structures when plated on Matrigel. All data from ref. 7.
Both SerpinE2 and SLPI are secreted proteins but whether their secretion is necessary for their effects on VM is unknown. To ascertain the importance of intra- vs extracellular localization of SerpinE2 and SLPI, we perform knockdown add-back experiments in which we suppress SerpinE2 or SLPI in 4T1-T^VM cells using shRNAs directed against the 3′ UTR followed by re-expression of HALO-tagged coding sequence constructs (FIG. 2) in which the signal peptide (a necessary signal for secretion) is either present or absent^8. These engineered cell lines then are tested for their ability to form VM tubes in vitro in the Matrigel assay and their ability to form VM channels and metastases in vivo by transplantation into the mammary fat-pad of Balb/C mice.
To ascertain whether regulation of VM underlies these effects of IRE1 on metastasis we turned to the in vitro VM tube assay. Inhibition of IRE1 with two independent small molecule inhibitors of its RNAse activity enhanced VM tubulogenesis while activation of IRE1 with Tunicamycin suppressed VM (FIGS. 4E and F). […]

[3] = system: 4T1-T^VM cells; assay: plating remaining treated cells in 2D (cell viability); assay type: cell-based, mouse; conditions: remaining treated cells plated in 2D
Description: To ascertain whether regulation of VM underlies these effects of IRE1 on metastasis we turned to the in vitro VM tube assay. Inhibition of IRE1 with two independent small molecule inhibitors of its RNAse activity enhanced VM tubulogenesis while activation of IRE1 with Tunicamycin suppressed VM (FIGS. 4E and F).

[4] = low-dose, IRE1 activation in vivo; cited from earlier work
[5] = system: 4T1-T^VM cells; assay: polyA+ RNA-Seq of treated cells with GO analysis and GSEA; assay type: cell-based, mouse
Description: Y axis is log^2 fold change mRNA levels and X axis is the negative log^10 of the corrected p-value. Red points highlight significant changes with a p value below 0.05.
To assess the role of VM as a resistance mechanism in this clinical cohort, we examined whether this Bev resistance gene signature was altered by perturbations that influence VM (FIGS. 9A-9C). […] Thus, co-targeting of VM may enhance response to anti-angiogenic cancer therapies.

Row | Substance | clinical response [1] | VM tubulogenesis (tube formation) [2] | effects on cell viability [3] | toxicity in vivo [4] | GO analysis of genes significantly down-regulated by Tunicamycin/IRE1 activation and up-regulated by IRE1 inhibition ([5]; DESeq corrected p value<0.05) | GO analysis of genes significantly up-regulated by Tunicamycin/IRE1 activation and down-regulated by IRE1 inhibition ([5]; DESeq corrected p value<0.05) | Bev resistance gene signature (GSEA) ([5]; bevacizumab resistance genes of Mehta et al. in IRE1-regulated expression data) | VM gene signature (GSEA) ([5]; signature from VM clones vs all other clones)
1 | Avastin®/bevacizumab: VEGF-blocking antibody (Genentech) | most patients showing transient responses followed by inevitable resistance | – | – | – | – | – | – | –
2 | Tunicamycin | – | suppressed VM; also recorded: profoundly suppresses VM tubulogenesis | ruled out any demonstrable effects on cell viability | without apparent toxicity | enriched for regulators of vasculature development and secreted ECM/ECM-affiliated genes | enrichment of terms related to ER stress | globally down-regulated; also recorded: profoundly suppresses | profoundly suppresses
